Test results from ChEMBL document CHEMBL4689842, “EUbOPEN Chemogenomics Library wave 1” (2021).

Experiments:
Type in all cases: toxicity, cell-based
[1] = test system: HEK-293T; experiment: Incucyte cell viability with HEK293T; details: human, 10 µM, compound concentration 10 uM
[2] = test system: Fibroblast; experiment: Incucyte cell viability with human fibroblast; details: 10 µM, compound concentration 10 uM
[3] = test system: U2OS; experiment: Incucyte cell viability with U2OS; details: human, 10 µM, compound concentration 10 uM
[4] = 0 h, replicate number 1, timepoint 0 hours
[5] = 6 h, replicate number 1, timepoint 6 hours
[6] = 6 h, replicate number 2, timepoint 6 hours
[7] = 12 h, replicate number 1, timepoint 12 hours
[8] = 12 h, replicate number 2, timepoint 12 hours
[9] = 18 h, replicate number 1, timepoint 18 hours
[10] = 24 h, replicate number 1, timepoint 24 hours
[11] = 0 h, replicate number 2, timepoint 0 hours
[12] = 18 h, replicate number 2, timepoint 18 hours
[13] = 24 h, replicate number 2, timepoint 24 hours
Further: filed as whole numbers so only -1 and 0 and 1 occur.

| SMILES | Growth Rate [1, 4] | Growth Rate [1, 5] | Growth Rate [1, 7] | Growth Rate [1, 9] | Growth Rate [1, 10] | Growth Rate [2, 4] | Growth Rate [2, 5] | Growth Rate [2, 7] | Growth Rate [2, 9] | Growth Rate [2, 10] | Growth Rate [3, 4] | Growth Rate [3, 7] | Growth Rate [3, 9] | Growth Rate [3, 10] | Growth Rate [3, 6] | Growth Rate [3, 8] | Growth Rate [3, 13] | Growth Rate [1, 11] | Growth Rate [3, 5] | Growth Rate [2, 13] | also measured |
| --- | --- | --- | --- | --- | --- | --- | --- | --- | --- | --- | --- | --- | --- | --- | --- | --- | --- | --- | --- | --- | --- |
| Cc1nc2sccn2c(=O)c1CCN1CCC(=C(c2ccc(F)cc2)c2ccc(F)cc2)CC1 [RITANSERIN] | 0 | 1 | 1 | 0 | 0 | 0 | 0 | 0 | 0 | 0 | 1 | 1 | 1 | 1 | – | – | – | – | – | – | Growth Rate [1, 6]: 0; Growth Rate [1, 8]: 0; Growth Rate [3, 11]: 0 |
| O=C(O)COc1cccc(CN(Cc2ccc(-n3cccn3)cc2)S(=O)(=O)c2cccnc2)c1 | 0 | 1 | 1 | 1 | 1 | 1 | 0 | 1 | 1 | 1 | 0 | 1 | 1 | 1 | 0 | 0 | 0 | – | – | – | Growth Rate [3, 12]: 0 |
| O=C(NOC[C@H](O)CO)c1ccc(F)c(F)c1Nc1ccc(I)cc1F [MIRDAMETINIB] | 0 | – | – | – | – | – | 1 | 1 | 1 | 1 | – | 0 | 0 | 0 | – | – | – | 1 | 0 | – | Growth Rate [1, 13]: 1; Growth Rate [2, 11]: 0; Growth Rate [2, 6]: 0; Growth Rate [3, 11]: 0 |
| CCCCc1nc2ccc(NC(=O)NC3CCCCC3)cc2n1Cc1ccc(-c2ccccc2C(=O)O)cc1 | 1 | 0 | 0 | 0 | 0 | 0 | 1 | 0 | 1 | 1 | 0 | 0 | 0 | 0 | – | 1 | 1 | 0 | 0 | – | Growth Rate [1, 6]: 1; Growth Rate [1, 8]: 1; Growth Rate [1, 12]: 1; Growth Rate [3, 12]: 1 |
| CCCCN(CCCC)C(=O)CN1C[C@@H](c2cc(OC)c3c(c2)OCO3)[C@H](C(=O)O)[C@H]1CC(C)(C)CCC [A-545] | – | 0 | 0 | 0 | 0 | – | 0 | 0 | 0 | 0 | 0 | 0 | 0 | 0 | – | 1 | – | – | 0 | – | – |
| CCC(=O)N[C@@H]1CC[C@H](C(=O)N(C)c2ccc(-c3nc4ccccc4o3)cc2)C1 [BI 99990] | 0 | 0 | 0 | 0 | 0 | 0 | 0 | 0 | 0 | 1 | 0 | 0 | 0 | 0 | 1 | 1 | – | 1 | 0 | 0 | – |
| CCCc1c(-c2ccc(O)cc2)nn(-c2ccc(O)cc2)c1-c1ccc(O)cc1 [PROPYLPYRAZOLETRIOL] | 0 | 1 | 1 | 1 | 0 | 0 | 0 | 0 | 0 | 0 | 1 | 1 | 0 | 1 | 1 | – | – | – | – | 1 | Growth Rate [1, 13]: 1; Growth Rate [2, 8]: 1; Growth Rate [2, 12]: 1; Growth Rate [3, 11]: 0; Growth Rate [3, 12]: 1 |
| C=CCN1C[C@H](C)N([C@H](c2ccc(C(=O)N(CC)CC)cc2)c2cccc(O)c2)C[C@H]1C | 1 | 0 | 0 | 0 | 0 | 0 | 0 | 0 | 0 | 1 | 0 | – | 1 | 1 | 1 | 1 | – | 0 | – | 0 | – |
| CCC(=O)N[C@H]1CC[C@@H](C(=O)N(C)c2ccc(-c3nc4ccccc4o3)cc2)C1 [BI 99179] | – | 0 | 0 | 0 | 0 | 0 | 1 | 1 | 0 | 0 | 0 | 1 | 1 | 1 | 1 | – | 0 | 1 | 0 | 1 | Growth Rate [2, 11]: 1; Growth Rate [3, 12]: 0 |
| COc1ccc(/C=C/CCCCOc2ccc(C(=O)c3cccc(C(=O)O)c3)cc2CCC(=O)O)cc1 | 1 | 1 | 1 | 1 | 1 | 0 | 1 | 0 | 0 | 0 | 0 | – | 1 | 1 | 0 | 0 | 0 | 0 | – | – | Growth Rate [1, 13]: 0; Growth Rate [2, 6]: 0; Growth Rate [3, 12]: 0 |
| COc1cc2c(cc1-c1c(C)noc1C)ncc1[nH]c(=O)n([C@H](C)c3ccccn3)c12 | – | 0 | – | 0 | 0 | 0 | – | 1 | 0 | 0 | 0 | 1 | 1 | 1 | – | – | – | 0 | 1 | – | Growth Rate [1, 8]: 0; Growth Rate [2, 8]: 0 |
| CCCCC[C@H](O)/C=C/[C@@H]1[C@@H](C/C=C\CCCC(=O)O)[C@@H](O)C[C@H]1O [DINOPROST] | 1 | 0 | 0 | 0 | 0 | 0 | – | – | – | – | 0 | 1 | 1 | 1 | 0 | – | – | 0 | – | 1 | Growth Rate [2, 6]: 1; Growth Rate [2, 8]: 0; Growth Rate [2, 12]: 1 |
| C[C@H](CO)Nc1nc(SCc2cccc(Cl)c2F)nc2[nH]c(=O)sc12 | 0 | 1 | 1 | 1 | 1 | 0 | 1 | 1 | 1 | 1 | – | 0 | 0 | 1 | 0 | – | 0 | – | 1 | – | Growth Rate [2, 6]: 0; Growth Rate [2, 12]: 0 |
| COc1ccccc1C(=O)Nc1cc2c(cc1N1CCCC1)n(C)c(=O)n2C | 0 | 0 | 1 | 1 | 1 | 0 | 1 | 1 | 1 | 1 | 0 | – | – | – | – | – | – | 1 | – | – | Growth Rate [2, 6]: 0; Growth Rate [2, 8]: 0 |
| O=C(Nc1cccnc1)c1cc(-c2ccnc(F)c2)ccc1OCc1ccccc1 | 0 | – | – | – | 1 | 0 | 0 | 0 | 0 | 0 | – | 0 | 0 | 0 | – | – | 1 | – | 1 | 1 | Growth Rate [1, 6]: 1; Growth Rate [1, 8]: 1; Growth Rate [1, 13]: 0; Growth Rate [2, 12]: 1; Growth Rate [3, 11]: 0 |
